# Source: patent US7273880B2, “Selective NPY (Y5) antagonists” (H. Lunbeck A/S, priority 1999, dated 2007)
# Assays:
# [1] = target: T1, human Y5 receptor (hNPY-5) (Homo sapiens, UniProt Q15761); assay: Radioligand binding to membranes, cloned human Y5 receptor; settings: cloned human NPY Y5 receptor, radioligand competition binding; Tables 1-3; read-out: Ki, nM hNPY-5
# T1 construct: expressed in transfected cells; host or cells: mouse fibroblast LM(tk-) cells, e.g. L-hY5-7 (ATCC CRL-11995)
# T1 sequence (Q15761 1-445): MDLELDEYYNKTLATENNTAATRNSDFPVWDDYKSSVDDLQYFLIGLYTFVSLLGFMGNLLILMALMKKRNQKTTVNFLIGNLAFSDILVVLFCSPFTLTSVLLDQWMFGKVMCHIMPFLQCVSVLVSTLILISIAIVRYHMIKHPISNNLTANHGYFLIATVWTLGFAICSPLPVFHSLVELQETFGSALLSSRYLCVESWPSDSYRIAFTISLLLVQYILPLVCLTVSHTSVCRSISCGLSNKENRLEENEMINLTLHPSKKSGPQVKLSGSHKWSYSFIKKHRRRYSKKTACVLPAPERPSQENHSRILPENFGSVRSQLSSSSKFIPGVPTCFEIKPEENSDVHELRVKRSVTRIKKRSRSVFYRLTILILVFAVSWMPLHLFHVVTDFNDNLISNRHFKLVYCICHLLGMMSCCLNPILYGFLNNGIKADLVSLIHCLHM
# Procedure, shortened: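 Competition binding on membranes from stably transfected 293 or LM(tk-) cells, with 0.08 nM ¹²⁵I-PYY in pH 7.4 HEPES buffer plus 0.1% BSA, 120 min at 30 °C, filtration and counting. Nonspecific binding defined by 300 nM human NPY, or 100 nM human PP for Y4; nonlinear regression.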
# [2] = target: hNPY-1,2,4 (human Y1, Y2, Y4 receptors); assay: Radioligand binding to membranes, cloned human Y1, Y2 and Y4 receptors; settings: one bound given for all three
# Experimental: Binding of the compounds of the present invention to human Y1, Y2, Y4, and Y5 receptors was evaluated using stably transfected 293 or LM(tk-) cells as described above. Stably transfected cell lines which may be used for binding assays include, for example, for the human Y1 receptor, 293-hY1-5 (deposited Jun. 4, 1996, under ATCC Accession No. CRL-12121), for the human Y2 receptor, 293-hY2-10 (deposited Jan. 27, 1994, under ATCC Accession No. CRL-11537), for the human Y4 receptor, L-hY4-3 (deposited Jan. 11, 1995, under ATCC Accession No. CRL-11779), and for human Y5 receptor, L-hY5-7 (deposited Nov. 15, 1995, under ATCC Accession No. CRL-11995). These cell lines were deposited with the American Type Culture Collection (ATCC), 10801 University Blvd., Manassas, Va. 20110-2209, U.S.A. under the provisions of the Budapest Treaty for the International Recognition of the Deposit of Microorganisms for the Purposes of Patent Procedure.
# Membranes were harvested from COS-7 cells 48 hours after transient transfection. Adherent cells were washed twice in ice-cold phosphate buffered saline (138 mM NaCl, 8.1 mM Na2HPO4, 2.5 mM KCl, 1.2 mM KH2PO4, 0.9 mM CaCl2, 0.5 mM MgCl2, pH 7.4) and lysed by sonication in ice-cold sonication buffer (20 mM Tris-HCl, 5 mM EDTA, pH 7.7). Large particles and debris were cleared by low speed centrifugation (200×g, 5 min, 4° C.). Membranes were collected from the supernatant fraction by centrifugation (32,000×g, 18 min, 4° C.), washed with ice-cold hypotonic buffer, and collected again by centrifugation (32,000×g, 18 min, 4° C.). The final membrane pellet was resuspended by sonication into a small volume of ice-cold binding buffer (˜1 ml for every 5 plates: 10 mM NaCl, 20 mM HEPES, 0.22 mM KH2PO4, 1.26 mM CaCl2, 0.81 mM MgSO4, pH 7.4). Protein concentration was measured by the Bradford method (Bradford, 1976) using Bio-Rad Reagent, with bovine serum albumin as a standard. Membranes were held on ice for up to one hour and used fresh, or flash-frozen and stored in liquid nitrogen.
# Membranes were prepared similarly from 293, LM(tk-), and NIH-3T3 cells. To prepare membranes from baculovirus infected cells, 2×10^7 Sf21 cells were grown in 150 mm tissue culture dishes and infected with a high-titer stock of hY5BB3. Cells were incubated for 2-4 days at 27° C., no CO2 before harvesting and membrane preparation as described above.
# Membrane suspensions were diluted in binding buffer supplemented with 0.1% bovine serum albumin to yield an optimal membrane protein concentration so that ^125I-PYY (or alternative radioligand such as ^125I-NPY, ^125I-PYY3-36, or ^125I-[Leu^31Pro^34]PYY) bound by membranes in the assay was less than 10% of ^125I-PYY (or alternative radioligand) delivered to the sample (100,000 dpm/sample=0.08 nM for competition binding assays). ^125I-PYY (or alternative radioligand) and peptide competitors were also diluted to desired concentrations in supplemented binding buffer. Individual samples were then prepared in 96-well polypropylene microtiter plates by mixing 125I-PYY (25 μL) (or alternative radioligand), competing peptides or supplemented binding buffer (25 μL), and finally, membrane suspensions (200 μL). Samples were incubated in a 30° C. water bath with constant shaking for 120 min. Incubations were terminated by filtration over Whatman GF/C filters (pre-coated with 1% polyethyleneimine and air-dried before use), followed by washing with 5 mL of ice-cold binding buffer. Filter-trapped membranes were impregnated with MeltiLex solid scintillant (Wallac, Turku, Finland) and counted for ^125I in a Wallac Beta-Plate Reader. Alternatively, incubations were carried out in GF/C filter plates (pre-coated with 1% polyethyleneimine and air-dried before use), followed by vacuum filtration and three washes of 300 μL of ice-cold binding buffer. 50 μL of UltimaGold (Packard) scintillant were added and counted for ^125I in a Wallac MicroBeta Trilux. […]
Compound,Ki [1],Ki [2]
"CCS(=O)(=O)NC[C@H]1CC[C@H](Nc2nc3c(s2)CCCc2ccc(F)cc2-3)CC1 [Example 31, trans-N2-(4-Ethylsulfonylaminomethyl)cyclohexyl-9-fluoro-5,6-dihydro-4H-benzo[6,7]cyclohepta[d][1,3]-thiazol-2-amine]",3.9 nM,> 10000 nM
"Cn1cnc(S(=O)(=O)NC[C@H]2CC[C@H](Nc3nc4c(s3)CCCc3ccc(F)cc3-4)CC2)c1 [Example 32, trans-1-Aza-9-fluoro-4,5-dihydro-2-{4-(1-methylimidazolyl-4-yl)sulfonylaminomethyl}cyclohexyl-amino-3-thia-benzo[e]azulene]",2.9 nM,> 10000 nM
"O=S(=O)(NC[C@H]1CC[C@H](Nc2nc3c(s2)CCCc2ccc(F)cc2-3)CC1)c1ccc(F)c(F)c1 [Example 40, trans-1-Aza-9-fluoro-2-{4-(3,4-difluorophenyl)-sulfonyl-aminomethyl}cyclohexylamino-4,5-dihydro-3-thia-benzo[e]azulene]",19.5 nM,> 10000 nM
"O=S(=O)(N[C@H]1CC[C@H](CNc2nc3c(s2)CCCc2ccc(F)cc2-3)CC1)c1ccccc1F [Example 42, trans-1-Aza-9-fluoro-2-{4-(2-fluoro)phenylsulfonyl-amino}-cyclohexylmethylamino-4,5-dihydro-3-thia-benzo[e]azulene]",3.9 nM,> 10000 nM
"O=S(=O)(N[C@H]1CC[C@H](Nc2nc3c(s2)CCCc2ccc(F)cc2-3)CC1)c1cccnc1 [Example 54, trans-1-Aza-9-fluoro-4,5-dihydro-2-(4-(3-pyridyl-sulfonylamino)cyclohexyl)amino-3-thia-benzo[e]azulene]",11.9 nM,> 10000 nM
"CCN(CC)S(=O)(=O)NC[C@H]1CC[C@H](Nc2nc3c(s2)CCSc2ccccc2-3)CC1 [Example 102, N′-{[4-(4,5-Dihydrobenzo[2,3]thiepino[4,5-d][1,3]thiazol-2-ylamino)cyclohexyl]methyl}-N,N-diethylsulfamide]",5.2 nM,> 10000 nM
"CCN(CC)S(=O)(=O)NCCCCCNc1nc2c(s1)CCSc1ccccc1-2 [Example 103, N′-[5-(4,5-Dihydrobenzo[2,3]thiepino[4,5-d][1,3]thiazol-2-ylamino)pentyl]-N,N-diethylsulfamide]",3.7 nM,> 10000 nM

# The next lines start with the values.
Ki [1],Ki [2],Compound
6.8 nM,> 10000 nM,"Cc1noc(C)c1S(=O)(=O)NC[C@H]1CC[C@H](Nc2nc3c(s2)CCCc2ccc(F)cc2-3)CC1 [Example 33, trans-1-Aza-9-fluoro-4,5-dihydro-2-{4-(3,5-dimethylisoxazol-4-yl)sulfonylaminomethyl}cyclohexyl-amino-3-thia-benzo[e]azulene]"
4.8 nM,> 10000 nM,"O=S(=O)(CC(F)(F)F)NCCCCNc1nc2c(s1)CCCc1ccc(F)cc1-2 [Example 39, 1-Aza-9-fluoro-4,5-dihydro-2-(4-(2,2,2-trifluoroethyl)-sulfonylamino)butylamino-3-thia-benzo[e]azulene]"
15.1 nM,> 10000 nM,"COc1ccc(C)cc1S(=O)(=O)NC[C@H]1CC[C@H](Nc2nc3c(s2)CCOc2ccccc2-3)CC1 [Example 48, trans-1-Aza-4,5-dihydro-2-{4-(2-methoxy-5-methyl)phenyl-sulfonylaminomethyl}cyclohexylamino-6-oxa-3-thia-benzo[e]azulene]"
3.2 nM,> 10000 nM,"CCN(CC)S(=O)(=O)NCCCCNc1nc2c(s1)CCSc1ccccc1-2 [Example 104, N′-[4-(4,5-Dihydrobenzo[2,3]thiepino[4,5-d][1,3]thiazol-2-ylamino)butyl]-N,N-diethylsulfamide]"
91 nM,> 10000 nM,"CC(C)(C)OC(=O)NCCCCCNc1nc2c(s1)CCSc1ccc(F)cc1-2 [Example 105, tert-Butyl N-{5-[(9-fluoro-4,5-dihydrobenzo[2,3]-thiepino[4,5-d][1,3]thiazol-2-yl)amino]pentyl}-carbamate]"
